Test results as given in patent EP0490549B1, “Stabilisation of pharmaceutical compositions comprising calcitonin” (CIBA-GEIGY AG, priority 1990, dated 1995).
Entries after “also recorded” stand apart in the source; their conditions may differ. Like-named read-outs stand apart in the source and are kept apart here.

Columns and labels:
[1] = Stability of aqueous hCT solutions against fibrillation or precipitation (solution remains clear on storage); details: for solution is stable for: Example 1 repeated (5 mg/ml hCT) with acetic acid replaced by the named acid; for ability of an acid to produce a stable solution of hCT (solution remains clear): storing for 24 hours at 25°C
Protocol: The ability of an acid to produce a stable solution can be readily determined by making up a solution and storing it for 24 hours at 25°C.
Example 1 is repeated except that the solutions also contain 0.5% hydroxypropylmethylcellulose.

[2] = as above; format: physicochemical; details: 5 mg/ml hCT; acetic acid 0.0001%, 0.001%, 0.01%, 0.1% and 1.0%; after 8 months
[3] = Extrapolated time of fibrillation (ln/ln plot of fibrillation time against hCT concentration); details: at 4°C; solutions with 5-9 mg/ml hCT in 0.001% acetic acid; from measurements up to 100 mg/ml hCT using the ln/ln plot
[4] = additive mixed with the hCT solution after preparation

Row | Compound | solution is stable for [1] | ability of an acid to produce a stable solution of hCT (solution remains clear) [1] | other results
1 | O=C(O)C(O)C(O)C(=O)O (racemic) [DL-tartaric acid] | over 4 days | form stable solutions | 
2 | N[C@H](CCC(=O)O)C(=O)O [D-glutamic acid] |  | do not form stable solutions | 
3 | N[C@@H](CCC(=O)O)C(=O)O [L-glutamic acid] | over 4 days |  | 
4 | O=C(O)C(O)C(O)C(=O)O [L-α-tartaric acid] | over 4 days | form stable solutions | 
5 | O=C(O)CCCCC(=O)O [adipic acid] | over 4 days | form stable solutions | 
6 | O=C1O[C@H]([C@@H](O)CO)C(O)=C1O [ascorbic acid] | over 4 days | form stable solutions | 
7 | N[C@@H](CC(=O)O)C(=O)O [aspartic acid] |  | do not form stable solutions | 
8 | CC(C)(C)CC(C)(C)c1ccc(OCCOCC[N+](C)(C)Cc2ccccc2)cc1 [benzethonium chloride] |  |  | effect of additive on the stability of the hCT solution [1, 4]: do not diminish the stability; also recorded: improve the stability
9 | [H]/N=C(\N/C(=N/[H])NCCCCCCNC(=N)NC(=N)Nc1ccc(Cl)cc1)Nc1ccc(Cl)cc1 [chlorhexidine diacetate] |  |  | effect of additive on the stability of the hCT solution [1]: do not diminish the stability
10 | O=C(O)CC(O)(CC(=O)O)C(=O)O [citric acid] | over 4 days | form stable solutions | 
11 | CCO [ethanol] |  |  | effect of additive on the stability of the hCT solution [1]: do not diminish the stability
12 | O=C(O)CN(CCN(CC(=O)O)CC(=O)O)CC(=O)O [ethylene - diamine tetraacetic acid] |  | form stable solutions | 
13 | O=CO [formic acid] | over 4 days | form stable solutions | 
14 | O=C(O)[C@H](O)[C@@H](O)[C@H](O)[C@H](O)CO [gluconic acid] |  | do not form stable solutions | 
15 | O=C(O)CCCC(=O)O [glutaric acid] | over 4 days | form stable solutions | 
16 | CC[C@H](C)[C@H](NC(=O)[C@H](C)NC(=O)[C@@H](NC(=O)[C@H](CCC(N)=O)NC(=O)[C@@H]1CCCN1C(=O)[C@H](Cc1ccccc1)NC(=O)[C@@H](NC(=O)[C@H](Cc1c[nH]cn1)NC(=O)[C@H](Cc1ccccc1)NC(=O)[C@H](CCCCN)NC(=O)[C@H](CC(N)=O)NC(=O)[C@H](Cc1ccccc1)NC(=O)[C@H](CC(=O)O)NC(=O)[C@H](CCC(N)=O)NC(=O)[C@@H](NC(=O)[C@H](Cc1ccc(O)cc1)NC(=O)[C@@H](NC(=O)CNC(=O)[C@H](CC(C)C)NC(=O)[C@H](CCSC)NC(=O)[C@@H]1CSSC[C@H](N)C(=O)NCC(=O)N[C@@H](CC(N)=O)C(=O)N[C@@H](CC(C)C)C(=O)N[C@@H](CO)C(=O)N[C@@H]([C@@H](C)O)C(=O)N1)[C@@H](C)O)[C@@H](C)O)[C@@H](C)O)[C@@H](C)O)C(=O)NCC(=O)N[C@H](C(=O)NCC(=O)N[C@@H](C)C(=O)N1CCC[C@H]1C(N)=O)C(C)C [hCT] |  |  | stability of solution [2]: stable and perfectly clear; stability predicted [3]: more than 5 years
17 | Cl [hydrochloric acid] | over 4 days | form stable solutions | 
18 | OC[C@H]1O[C@@H](O[C@H]2[C@H](O)[C@@H](O)C(O)O[C@@H]2CO)[C@H](O)[C@@H](O)[C@H]1O (stereo partly shown) [lactose] |  |  | effect of additive on the stability of the hCT solution [1]: do not diminish the stability
19 | O=C(O)/C=C\C(=O)O [maleic acid] |  | do not form stable solutions | 
20 | O=C(O)CC(=O)O [malonic acid] | over 4 days | form stable solutions | 
21 | OC[C@@H](O)[C@@H](O)[C@H](O)[C@H](O)CO [mannitol] |  |  | effect of additive on the stability of the hCT solution [1]: do not diminish the stability
22 | Oc1ccccc1 [phenol] |  | form stable solutions | 
23 | O=C(O)CCC(=O)O [succinic acid] | over 4 days |  | 
24 | OC[C@H]1O[C@@](CO)(O[C@H]2O[C@H](CO)[C@@H](O)[C@H](O)[C@H]2O)[C@@H](O)[C@@H]1O [sucrose] |  |  | effect of additive on the stability of the hCT solution [1]: do not diminish the stability
25 | OC[C@H]1O[C@H](O[C@H]2O[C@H](CO)[C@@H](O)[C@H](O)[C@H]2O)[C@H](O)[C@@H](O)[C@@H]1O [trehalose] |  |  | effect of additive on the stability of the hCT solution [1]: do not diminish the stability
26 | benzalkonium chloride |  |  | effect of additive on the stability of the hCT solution [1, 4]: do not diminish the stability
27 | sulphuric acid |  | do not form stable solutions | 
